What was measured:
Format in all cases: biochemical
AT4G27480 (248) = target: T1, AT4G27480 (248) (Arabidopsis thaliana, UniProt F4JIW2); assay: glucuronosyltransferase assay, RP-HPLC with fluorescence detection; settings: donor 0.4 mM; acceptor 5 uM β-Gal-NBD, β-1,6-Gal4-AA or β-1,3-Gal5-AA; 25 °C, 2 h; microsomes
T1 construct: full-length CDS, C-terminal YFP and HA tags (pEarleyGate 101), transient expression in Nicotiana benthamiana, Triton X-100 treated microsomal membranes, about 75 kDa fusion
T1 sequence (F4JIW2 1-421): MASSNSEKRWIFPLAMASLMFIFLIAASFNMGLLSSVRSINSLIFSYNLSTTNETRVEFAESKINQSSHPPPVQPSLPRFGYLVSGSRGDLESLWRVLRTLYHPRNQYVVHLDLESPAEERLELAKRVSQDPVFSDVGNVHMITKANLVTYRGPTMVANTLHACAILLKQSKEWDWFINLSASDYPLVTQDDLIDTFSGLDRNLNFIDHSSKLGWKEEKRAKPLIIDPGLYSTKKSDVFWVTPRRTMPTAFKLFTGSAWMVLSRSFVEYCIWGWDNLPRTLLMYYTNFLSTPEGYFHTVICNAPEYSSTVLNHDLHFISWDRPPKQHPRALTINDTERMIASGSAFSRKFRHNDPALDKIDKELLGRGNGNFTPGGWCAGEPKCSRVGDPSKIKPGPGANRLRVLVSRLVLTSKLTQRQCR

[1] = target: T2, AT5G15050 (249, AtGlcAT14B) (Arabidopsis thaliana, UniProt Q9LFQ0); assay: as above; settings: donor 0.4 mM; acceptor 5 uM β-Gal-NBD, β-1,6-Gal4-AA or β-1,3-Gal5-AA; 25 °C, 2 h; microsomes
T2 construct: gene GLCAT14B; full-length CDS, C-terminal YFP and HA tags (pEarleyGate 101), transient expression in Nicotiana benthamiana, Triton X-100 treated microsomal membranes, about 75 kDa fusion
T2 sequence (Q9LFQ0 1-434): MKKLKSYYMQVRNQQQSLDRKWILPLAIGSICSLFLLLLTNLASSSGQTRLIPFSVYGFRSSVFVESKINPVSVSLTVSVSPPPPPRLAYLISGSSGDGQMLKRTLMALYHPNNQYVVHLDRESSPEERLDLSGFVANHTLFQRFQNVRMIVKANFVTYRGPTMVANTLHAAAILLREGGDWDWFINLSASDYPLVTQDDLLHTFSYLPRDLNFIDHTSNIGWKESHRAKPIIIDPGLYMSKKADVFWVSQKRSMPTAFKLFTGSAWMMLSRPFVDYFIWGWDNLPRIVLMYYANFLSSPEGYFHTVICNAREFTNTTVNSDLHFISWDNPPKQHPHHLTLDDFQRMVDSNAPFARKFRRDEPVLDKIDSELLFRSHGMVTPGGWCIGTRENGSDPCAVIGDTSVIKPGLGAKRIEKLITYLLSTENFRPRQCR

[2] = target: T3, AT3G15350 (245, AtGlcAT14E) (Arabidopsis thaliana, UniProt Q9LE60); assay: glucuronosyltransferase assay, RP-HPLC fluorescence and LC-ESI-MS of products; settings: donor 0.4 mM; acceptor 5 uM β-1,3-Gal5-AA; 25 °C, 2 h; microsomes
T3 construct: full-length CDS, C-terminal YFP and HA tags (pEarleyGate 101), transient expression in Nicotiana benthamiana, Triton X-100 treated microsomal membranes, about 75 kDa fusion
T3 sequence (Q9LE60 1-424): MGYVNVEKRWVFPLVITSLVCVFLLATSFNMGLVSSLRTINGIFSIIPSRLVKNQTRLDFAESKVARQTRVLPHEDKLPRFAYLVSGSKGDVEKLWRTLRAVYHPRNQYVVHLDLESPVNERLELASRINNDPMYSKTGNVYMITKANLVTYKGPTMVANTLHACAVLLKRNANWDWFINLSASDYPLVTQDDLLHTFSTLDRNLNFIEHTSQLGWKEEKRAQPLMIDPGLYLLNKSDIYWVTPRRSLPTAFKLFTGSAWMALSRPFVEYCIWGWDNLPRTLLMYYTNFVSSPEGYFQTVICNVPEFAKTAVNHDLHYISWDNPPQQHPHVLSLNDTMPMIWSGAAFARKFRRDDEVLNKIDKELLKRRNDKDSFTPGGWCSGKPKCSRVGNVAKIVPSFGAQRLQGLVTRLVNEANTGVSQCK

## O=C(O)[C@H]1O[C@H](OP(=O)(O)OP(=O)(O)OC[C@H]2O[C@@H](n3ccc(=O)[nH]c3=O)[C@H](O)[C@@H]2O)[C@H](O)[C@@H](O)[C@@H]1O [UDP-GlcA]
AT4G27480 (248)
  glucuronosyltransferase assay, RP-HPLC with fluorescence detection: AT4G27480 show the GlcAT activity using the three different acceptors
[1]
  glucuronosyltransferase assay, RP-HPLC with fluorescence detection: This result confirms that AtGlcAT14B and AtGlcAT14E have GlcAT activity
[2]
  glucuronosyltransferase assay, RP-HPLC fluorescence and LC-ESI-MS of products: However, only UDP-GlcA was an active substrate donor
